Twelve compounds from ChEMBL document CHEMBL1201862, “PubChem BioAssay data set” (2004) can be followed below.

SMILES strings stand for the structures.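 Values below derive from 48-hour exposures of cells grown in 96-well plates, with endpoints linearly interpolated between the two concentrations bracketing the appropriate inhibition level. At the GI50, growth is halved.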 The source made the active and inactive calls. Rule as the data show it: active = GI50 up to about 1.1 µM and inactive = higher.

Among the test systems are A498; CAKI-1; EKVX; HCC 2998; HCT-15; HL-60; HOP-62; IGROV-1; NCI-H460; OVCAR-3; RPMI-8226; SK-MEL-2; SN12C; SNB-19; SNB-75; SR; MDA-MB-231; MDA-MB-435; DU-145.
Assay in all cases: NCI tumour cell line growth inhibition, 48 h

Consider `O=C(O)\C=C/C=C/C=C/C=C/C(=O)O`, for which the GI50 was > 100 µM (inactive) with A498; > 100 µM (inactive) with CAKI-1; > 100 µM (inactive) with EKVX; > 100 µM (inactive) in the test with HCC 2998; more than 100 µM in the test on HCT-15; > 100 µM (inactive) with HL-60. For the same compound, the GI50 with HOP-62, in the test with IGROV-1, in the test with NCI-H460, with OVCAR-3, in the test on RPMI-8226 and in the test with SK-MEL-2 was > 100 µM (inactive) in each case. For the same compound, the GI50 in the test with SN12C, with SNB-19, in the test with SNB-75 and with SR was > 100 µM (inactive) each time.
Turning to `CC1=C(C(=O)Nc2ccc(Cl)c(Cl)c2)C(c2ccco2)C(C(=O)Nc2ccc(Cl)c(Cl)c2)=C(C)N1`, the GI50 with A498 was 12.8 µM (inactive); in the test with CAKI-1 it was 14 µM (inactive); in the test on EKVX it was 14.9 µM (inactive); in the test on HCC 2998, 11.5 µM (inactive); in the test with HCT-15, 11.5 µM; in the test with HL-60 it was 19.3 µM (inactive). The GI50 in the test on HOP-62 is 14 µM (inactive); in the test with IGROV-1, 14.3 µM (inactive); in the test on NCI-H460 it was 13.7 µM (inactive); in the test with OVCAR-3 it was 7.98 µM (inactive); in the test on RPMI-8226, 7.16 µM (inactive); in the test on SK-MEL-2, 12.4 µM (inactive). Also, the GI50 in the test on SN12C was 11.6 µM (inactive); with SNB-19, 12.7 µM (inactive); with SNB-75, 13.9 µM (inactive); with SR it was 10.6 µM (inactive).
On to `CC(=O)Nc1ccc2cc3c(nc2n1)c1cccnc1n3S(=O)(=O)c1ccccc1`, for which the GI50 is > 100 µM (inactive) in the test on A498; > 100 µM (inactive) with CAKI-1; > 100 µM (inactive) in the test on EKVX; > 100 µM (inactive) with HCC 2998; more than 100 µM in the test with HCT-15; > 100 µM (inactive) in the test with HL-60. In addition, the GI50 with HOP-62, in the test with IGROV-1, with MDA-MB-231, in the test on MDA-MB-435, in the test with NCI-H460 and in the test with OVCAR-3 was > 100 µM (inactive) each time. For the same compound, the GI50 with RPMI-8226 is 19.1 µM (inactive); in the test with SK-MEL-2, > 100 µM (inactive); in the test on SN12C it was > 100 µM (inactive); in the test with SNB-19 it was > 100 µM (inactive); in the test with SNB-75, 59.6 µM (inactive); in the test with SR, 28.3 µM (inactive).
For `NC(=O)N/N=C(/Cc1nc2ccc(C(=O)c3ccccc3)cc2nc1O)C(=O)Nc1ccc(C(F)(F)F)cc1[N+](=O)[O-]`, the GI50 in the test on A498 is > 100 µM (inactive); in the test with CAKI-1, 42.8 µM (inactive); in the test with EKVX, 14.2 µM (inactive); with HCC 2998, 61.4 µM (inactive); in the test on HCT-15, 50.7 µM; in the test on HL-60, 42.1 µM (inactive). Also, the GI50 was > 100 µM (inactive) in the test with HOP-62; > 100 µM (inactive) in the test with IGROV-1; 65 µM (inactive) in the test with NCI-H460; 43.4 µM (inactive) in the test with OVCAR-3; 50.1 µM (inactive) in the test on RPMI-8226; > 100 µM (inactive) with SK-MEL-2. The GI50 in the test with SN12C was > 100 µM (inactive); with SNB-19, > 100 µM (inactive); in the test with SNB-75, 26 µM (inactive); in the test with SR, 45.4 µM (inactive).
For `CCN(CC)CCN(C(=O)C(C)(C)C)c1ccccc1N`, the GI50 is > 100 µM (inactive) in the test on CAKI-1; > 100 µM (inactive) with DU-145; > 100 µM (inactive) in the test with EKVX; more than 100 µM in the test with HCT-15; > 100 µM (inactive) in the test on HL-60; > 100 µM (inactive) with HOP-62. The GI50 in the test on IGROV-1, in the test on NCI-H460, with OVCAR-3, in the test with RPMI-8226, in the test with SN12C and in the test with SNB-19 was > 100 µM (inactive) each time. The GI50 in the test on SNB-75 and in the test with SR was > 100 µM (inactive) in each case.
`CC(=O)OCC1OC(n2cc(I)c(=O)[nH]c2=O)C(OC(C)=O)C(OC(C)=O)C1OC(C)=O` (stereo unspecified): the GI50 with A498 was > 100 µM (inactive); with CAKI-1, > 100 µM (inactive); with EKVX it was > 100 µM (inactive); in the test with HCC 2998 it was > 100 µM (inactive); in the test on HCT-15, more than 100 µM; with HL-60 it was > 100 µM (inactive). Moreover, the GI50 in the test with HOP-62, in the test on IGROV-1, in the test with NCI-H460, with OVCAR-3, in the test with RPMI-8226 and with SK-MEL-2 was > 100 µM (inactive) throughout. Besides, the GI50 in the test on SN12C was > 100 µM (inactive); in the test on SNB-19, > 100 µM (inactive); with SNB-75 it was 82.8 µM (inactive); with SR it was > 100 µM (inactive).
`Cc1c(-c2ccccc2)n(C)c2cn[nH]c(=O)c12`: the GI50 in the test with A498 was 30.4 µM (inactive); with CAKI-1, 49.5 µM (inactive); with DU-145, 67.8 µM (inactive); in the test on EKVX, 18.1 µM (inactive); with HCC 2998, 27.8 µM (inactive); in the test on HCT-15 it was 36.6 µM. Further, the GI50 with HL-60 is 36.5 µM (inactive); with HOP-62 it was 30 µM (inactive); in the test with IGROV-1, 70 µM (inactive); with MDA-MB-231, 17.9 µM (inactive); in the test on MDA-MB-435 it was 33.1 µM (inactive); in the test with NCI-H460, 63.8 µM (inactive). Moreover, the GI50 in the test on OVCAR-3 is 19.7 µM (inactive); in the test with RPMI-8226, 38.1 µM (inactive); in the test with SK-MEL-2, 22.7 µM (inactive); in the test with SNB-19, > 100 µM (inactive); in the test on SR, 27 µM (inactive).
Turning to `O=C1NC2(NC(=O)C1=O)Nc1ccccc1S2`, the GI50 in the test with A498 was 99.1 µM (inactive); with CAKI-1 it was 62.5 µM (inactive); in the test with EKVX it was > 100 µM (inactive); in the test with HCC 2998, > 65.5 µM (inactive); in the test on HCT-15, 33.7 µM; in the test with HL-60, 21.6 µM (inactive). Besides, the GI50 was > 83.8 µM (inactive) in the test on HOP-62; > 92.7 µM (inactive) with IGROV-1; 51.5 µM (inactive) in the test on NCI-H460; > 89.3 µM (inactive) with OVCAR-3; 21.6 µM (inactive) with RPMI-8226; 55.8 µM (inactive) in the test on SK-MEL-2. For the same compound, the GI50 with SN12C is 23.8 µM (inactive); with SNB-19, > 100 µM (inactive); in the test on SNB-75, 68.7 µM (inactive); in the test with SR, 24.5 µM (inactive).
`CN(C)Nc1cc(=O)[nH]c(=O)[nH]1`: the GI50 is > 100 µM (inactive) with A498; > 100 µM (inactive) in the test on DU-145; > 100 µM (inactive) in the test on EKVX; > 100 µM (inactive) with HCC 2998; more than 100 µM with HCT-15; > 100 µM (inactive) in the test on HL-60. In addition, the GI50 in the test on HOP-62, with IGROV-1, with MDA-MB-231, in the test with MDA-MB-435, in the test on NCI-H460 and in the test on OVCAR-3 was > 100 µM (inactive) in each case. Besides, the GI50 in the test with RPMI-8226, with SN12C, in the test on SNB-19 and in the test on SR was > 100 µM (inactive) each time.
With `CCOC(=O)C1(C(=O)OCC)CN(CC)CN(c2ccccc2)C1`, the GI50 with A498 is > 100 µM (inactive); in the test with CAKI-1, 17.8 µM (inactive); with DU-145 it was 30 µM (inactive); in the test on EKVX, 17.6 µM (inactive); in the test with HCC 2998, 15.4 µM (inactive); in the test on HCT-15, 16 µM. Also, the GI50 was 22.2 µM (inactive) in the test on HL-60; 21.1 µM (inactive) in the test with HOP-62; 19.6 µM (inactive) with IGROV-1; 19.1 µM (inactive) with MDA-MB-435; 35.4 µM (inactive) with NCI-H460; 18.5 µM (inactive) with OVCAR-3. Moreover, the GI50 in the test on RPMI-8226 is 18.2 µM (inactive); in the test with SN12C, 37.1 µM (inactive); in the test with SNB-19 it was > 100 µM (inactive); with SNB-75 it was 19.4 µM (inactive); in the test on SR, 21 µM (inactive).
As for `N#CCC(=O)Nc1ccccc1O`, the GI50 was > 100 µM (inactive) in the test with A498; > 100 µM (inactive) in the test on CAKI-1; > 100 µM (inactive) with EKVX; > 100 µM (inactive) in the test with HCC 2998; more than 100 µM in the test with HCT-15; > 100 µM (inactive) with HL-60. Besides, the GI50 with HOP-62, with IGROV-1, with NCI-H460, in the test with OVCAR-3, in the test on RPMI-8226 and in the test on SK-MEL-2 was > 100 µM (inactive) in each case. The GI50 in the test with SN12C, in the test with SNB-19, in the test with SNB-75 and in the test with SR was > 100 µM (inactive) each time.
With `O=C(Nn1c(-c2cccs2)nc2ccc(I)cc2c1=O)c1ccccc1`, the GI50 with CAKI-1 was 21.9 µM (inactive); in the test with DU-145, 20.6 µM (inactive); in the test on EKVX it was 27.8 µM (inactive); with HCC 2998, 22 µM (inactive); with HCT-15 it was 30.6 µM; with HOP-62 it was 40.7 µM (inactive). Besides, the GI50 in the test on IGROV-1 is 20.2 µM (inactive); with MDA-MB-435 it was 20.6 µM (inactive); with NCI-H460, 26.8 µM (inactive); with OVCAR-3 it was 16.9 µM (inactive); in the test on SN12C it was 35.6 µM (inactive); in the test with SNB-19, 21.3 µM (inactive). Moreover, the GI50 in the test with SR is 23.6 µM (inactive).
